According to patent US20140171320A1, “Composition Comprising A Pesticide And An Alkoxylate Of 2-Isopropyl-5-Methylhexane-1-Amine” (BASF SE, priority 2012, published 2014):

Tests used:
maize (cultivar Amadeo) = assay: Greenhouse herbicidal activity of glyphosate SL formulation with amine alkoxylate adjuvant on maize; type: in vivo; settings: after 21 days; 140 g glyphosate-IPA salt/ha and 300 g amine alkoxylate/ha, 375 l/ha water; score vs untreated plants
Protocol: (§1) For the greenhouse tests, winter wheat (cultivar Cubus), soybean (cultivar Sultana), and maize (cultivar Amadeo) was sown or potted in loamy sandy soil to a depth of 1-2 cm. When the plants had reached a growth height of 10 to 25 cm (i.e., around 10 to 21 days after sowing), the spray mixtures were applied to the plants in a spraying cabin.
(§2) A concentrated formulation comprising glyphosate isopropylammonium in solution in water and amine alkoxylate from Example 2 was diluted with deionized water and applied at a water application rate of 375 l/ha (140 g of glyphosate-IPA salt/ha and 300 g of amine alkoxylate/ha). The temperatures in the experimental period, which lasted for 3 weeks, were between 18-35° C. During this time, the experimental plants received optimum watering, with nutrients being supplied via the water used for watering.
(§3) The herbicidal activity was evaluated by awarding scores to the treated plants in comparison to the untreated control plants (Table 2). The evaluation scale ranges from 0% to 100% activity. 100% activity means the complete death at least of those parts of the plant that are above ground. Conversely, 0% activity means that there were no differences between treated and untreated plants.

[1] = test system: Sorghum halepense (SORHA); assay: Greenhouse herbicidal activity of glyphosate SL formulation with amine alkoxylate adjuvant on Sorghum; type: in vivo; settings: after 21 days; 140 g glyphosate-IPA salt/ha and 300 g amine alkoxylate/ha; score vs untreated plants
Protocol: as §1, §2, §3
(§4) The experiments were carried out as in Example 3, on Sorghum halepense (SORHA) and Setaria verticillata (SETVE). The application rate was 140 g of glyphosate-IPA salt/ha and 300 g of amine alkoxylate/ha.

[2] = Storage stability of aqueous glyphosate formulation; type: physicochemical; settings: 41.5% by weight glyphosate-isopropylammonium salt and 15.5% by weight amine alkoxylate, −5 to +55° C.
[3] = test system: winter wheat (cultivar Cubus); assay: Greenhouse herbicidal activity of glyphosate SL formulation with amine alkoxylate adjuvant on winter wheat; type: in vivo; settings: after 21 days; 140 g glyphosate-IPA salt/ha and 300 g amine alkoxylate/ha, 375 l/ha water; score vs untreated plants
Protocol: as §1, §2, §3

[4] = test system: soybean (cultivar Sultana); assay: Greenhouse herbicidal activity of glyphosate SL formulation with amine alkoxylate adjuvant on soybean; type: in vivo; settings: after 21 days; 140 g glyphosate-IPA salt/ha and 300 g amine alkoxylate/ha, 375 l/ha water; score vs untreated plants
Protocol: as §1, §2, §3

[5] = test system: Setaria verticillata (SETVE); assay: Greenhouse herbicidal activity of glyphosate SL formulation with amine alkoxylate adjuvant on Setaria; type: in vivo; settings: after 21 days; 140 g glyphosate-IPA salt/ha and 300 g amine alkoxylate/ha; score vs untreated plants
Protocol: as §1, §2, §3, §4

Storage stability [2]	Compound	Activity [%] Maize (maize (cultivar Amadeo)) [%]	Activity [%] SORHA [1] [%]	Activity [%] Winter wheat [3] [%]	Activity [%] Soybean [4] [%]	Activity [%] SETARIA [5] [%]
storage stable for at least two weeks	2-Isopropyl-5-methylhexane-1-amine-10 EO	80	93	62	48	78
	2-propylheptylamine-10 EO	80	97	55	42	88
	CC(C)N.O=C(O)CNCP(=O)(O)O [—, glyphosate isopropylammonium]	32	33	18	20	58
